Experimental data published in ChEMBL document CHEMBL5131527, “Novel BTK Inhibitors for Treating Autoimmune Disorders and Cancer” (ACS Med Chem Lett, 2022).

Biological target: Tyrosine-protein kinase BTK (Homo sapiens, UniProt Q06187)
Assay: Inhibition of BTK (unknown origin) using fluorescein-labeled polyGAT peptide as substrate incubated for 75 min in presence of ATP by time resolved fluorescence method

Chain of Tyrosine-protein kinase BTK (Q06187 whole entry): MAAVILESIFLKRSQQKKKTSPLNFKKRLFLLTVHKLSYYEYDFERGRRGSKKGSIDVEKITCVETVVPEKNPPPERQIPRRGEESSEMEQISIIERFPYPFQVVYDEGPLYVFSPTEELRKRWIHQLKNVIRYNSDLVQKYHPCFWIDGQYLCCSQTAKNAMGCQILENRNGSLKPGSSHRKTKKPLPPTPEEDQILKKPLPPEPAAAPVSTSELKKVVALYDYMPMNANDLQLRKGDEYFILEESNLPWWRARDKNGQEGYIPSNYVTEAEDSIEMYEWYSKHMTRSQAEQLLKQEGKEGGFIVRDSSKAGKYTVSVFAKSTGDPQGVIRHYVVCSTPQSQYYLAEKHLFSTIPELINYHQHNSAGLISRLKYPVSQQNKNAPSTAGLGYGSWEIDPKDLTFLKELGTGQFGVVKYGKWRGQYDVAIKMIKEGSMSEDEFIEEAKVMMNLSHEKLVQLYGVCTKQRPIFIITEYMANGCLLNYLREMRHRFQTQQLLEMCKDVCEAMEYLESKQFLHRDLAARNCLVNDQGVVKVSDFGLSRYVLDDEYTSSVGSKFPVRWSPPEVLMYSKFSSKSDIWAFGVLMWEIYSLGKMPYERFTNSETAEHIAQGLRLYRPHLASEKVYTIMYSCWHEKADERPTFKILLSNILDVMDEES

For `C=CC(=O)N(C)CC1CCN(c2cncnc2-c2ccc(CNC(=O)c3noc(C(C)(C)C)n3)c(C)c2)C1` (stereo unspecified), the IC50 was ≤ 1 nM.

For `C=CC(=O)N1CCN(c2cncnc2-c2ccc(CNC(=O)c3nnn(C(C)(C)C)n3)c(C)c2)CC1`, the IC50 was ≤ 1 nM.

With `C=CC(=O)N1CCN(c2cncnc2-c2ccc(CNC(=O)c3cn(C(C)(C)C)nn3)c(C)c2)CC1` the IC50 was ≤ 1 nM.

With `C=CC(=O)N(C)C1CCCN(c2cnccc2-c2ccc(CNC(=O)c3noc(C(C)(C)C)n3)c(C)c2)C1` (stereo unspecified) the IC50 was ≤ 1 nM.

With `C=CC(=O)N(C)C1CCN(c2cncnc2-c2ccc(CNC(=O)c3cn(C(C)(C)C)nn3)c(C)c2)C1` (stereo unspecified) the IC50 was ≤ 1 nM.

In the case of `C=CC(=O)N1CCN(c2cnccc2-c2ccc(CNC(=O)c3noc(C(C)(C)C)n3)c(C)c2)CC1`, the IC50 is reported as ≤ 1 nM.
